Measured values from patent publication US9783578B2, “Immunosuppression modulating compounds” (AURIGENE DISCOVERY TECHNOLOGIES LIMITED, priority 2010, dated 2017).
Converted amounts (≈) assume the structure as drawn. Read-outs that look alike come from different tables or passages of the source. Where a SMILES comes first, the peptide text is derived from it. Bridges are numbered along the chain shown (N, C = ends). Roman numbers before positions name the chains, in order.

Assays:
B16F10 cells = settings: 5 mg/kg s.c.; during the period of dosing
Description: C57/Black6 female mice (Aurigene, Bangalore, India) aged 6 to 8 weeks were used for the experiment. Animals were acclimatized for a week in the experimental room before conducting the experiment.
On day 0, B16F10 cells grown in DMEM containing 10% FBS at 70 to 75% confluency were harvested and 1×10^6 cells per animal were injected to mice subcutaneously on the right flank region. […] Vehicle control group of mice received only saline. Each group consisted of ten animals. Body weight and clinical signs were recorded daily.

Organisms (not named) = assay: organism not typed
Description: Required quantity of the compound was weighed and dissolved in water/dimethyl sulphoxide/suitable solvent to yield 1 mg/ml stock solution. The stock solution was diluted in MHB/CAMHB to yield 8 μg/ml or 64 μg/ml or 512 μg/ml solution as per requirement. Serial two fold dilutions of the compound was prepared using MHB/CAMHB in 96 well microtitre trays using a multichannel pipette. Organisms were grown in MHB/CAMHB for 4-5 hrs at 35±2° C., 110±10 rpm. Optical density (OD) of the cultures is adjusted to 625 nm which corresponds to 0.5 Mc Farland standard (1-2×10^8 cfu/ml) and further diluted to achieve a final inoculum of […]×10^4 cfu/well. Broth, compound and organism controls were set up. Microdilution trays were incubated at 35±2° C. for 16-20 hours in an ambient air incubator. After the incubation period, growth of organism in the wells was detected by unaided eye facilitated by a viewing device.

4T1 cells = settings: 3 mg/kg s.c.; during dosing period
Description: On day 0, 4T1 cells grown in RPMI 1640 containing 10% FBS at 70 to 75% confluency were harvested and 0.1×10^6 cells per animal were injected along with matrigel orthotopically to mammary fat pad. […] Vehicle control group of mice received only saline. Each group consisted of ten animals. Body weight and clinical signs were recorded daily. Tumour volume was measured by slide callipers.

in vitro = assay: in vitro
Description: Briefly, overnight fasted rats were sacrificed by cervical dislocation; kidneys were removed, washed with chilled saline and decapsulated. The renal tissue was sliced and a 5% homogenate was made in buffer containing 2 mM Tris-HCl, 50 mM mannitol pH 7.1 using 10 strokes in a Porter-Elvelhemhomogeniser. The homogenate was centrifuged at 250×g for 5 min and the pellet was re-homogenized (four strokes) in the same buffer. Both the homogenate preparations were pooled (an aliquot of sample was taken for enzyme assays), allowed to remain at 4° C. for 15 min and filtered using a nylon mesh cloth. To this, a 50% PEG solution in water was added to make a final concentration of 10% PEG, stirred for 15 min continuously at 4° C. and centrifuged at 7500×g for 10 min. The pellet was discarded and the supernatant was spun at 12,000×g for 10 min. This pellet was discarded and the supernatant was centrifuged at 27,000×g for 40 min. To the pellet, 15 ml suspension buffer containing 10 mM Tris-HCl and 300 mM mannitol, pH 7.1 was added, centrifuged at 27,000×g for 40 min. The pellet was washed twice with the same suspension buffer and finally suspended 1 ml of the same buffer using a syringe fitted with a 26-gauge needle.
1. Microsomal protein working solution was prepared as mentioned above (0.55 mg/ml) in 50 mM potassium phosphate buffer (pH 7.4)
2. Test compound (compound 69) working stock solutions at concentration of 4 μM was prepared in 50 mM potassium phosphate buffer (pH 7.4)
3. 125 μL of test compound (compound 69) from step 2 diluted with 100 μL of buffer and 275 μl of microsomal protein solution from step 2 was pre-incubated separately for 10 mins at 37° C.
4. Both the test solution from step 3 was mixed together and the reaction mixture was aliquoted at various time intervals and processed by SPE method.
Kidney brush border stability of the compounds was calculated as the amount of substrate metabolized by the incubation with kidney brush border microsomes. Initial amount of substrate (concentration at T0) was measured and KBBM stability was assessed by the disappearance of compound at various time points based on the change in analyte to internal standard peak height ratio using LCMS/MS (API 4000, AB Sciex). Results are expressed as mean±SD of test compound remaining at any given time point (Table VI).

[1] = system: mouse splenocytes inhibited by MDA-MB-231 tumour cells expressing PD-L1; assay: Mouse splenocyte proliferation rescue, CFSE method; assay type: cell-based; settings: screened at 100 nm concentration and compared with 100 nm Comp 8
Description: Mouse splenocytes harvested from 6-8 weeks old C57 BL6 mice.; RPMI 1640 (GIBCO, Cat #11875); DMEM with high glucose (GIBCO, Cat #D6429); Fetal Bovine Serum [Hyclone, Cat #SH30071.03]; Pencilin (10000 unit/ml)-Streptomycin(10,000 μg/ml) Liquid (GIBCO, Cat #15140-122); MEM Sodium Pyruvate solution 100 mM (100×), Liquid (GIBCO, Cat #11360); Nonessential amino acid (GIBCO, Cat #11140); L-Glutamine (GIBCO, Cat #25030); Anti-CD3 antibody (eBiosciences—16-0032); Anti-CD28 antibody (eBiosciences—16-0281); ACK lysis buffer (1 mL) (GIBCO, Cat #-A10492); Histopaque (density—1.083 gm/ml) (SIGMA 10831); Trypan blue solution (SIGMA-T8154); Hemacytometer (Bright line-SIGMA Z359629); FACS Buffer (PBS/0.1% BSA): Phosphate Buffered Saline (PBS) pH 7.2 (HiMedia TS1006) with 0.1% Bovine Serum Albumin (BSA) (SIGMA A7050) and sodium azide (SIGMA 08591); 5 mM stock solution of CFSE: CFSE stock solution was prepared by diluting lyophilized CFSE with 180 μL of Di methyl Sulfoxide (DMSO C2H6SO, SIGMA-D-5879) and aliquoted in to tubes for further use. Working concentrations were titrated from 10 μM to 1 μM. (eBioscience—650850-85); 96-well format ELISA plates (Corning CLS3390); BD FACS caliber (E6016).
Splenocytes harvested in a 50 ml falcon tube by mashing spleen in a 40 μm cell strainer were further treated with 1 ml ACK lysis buffer for 5 mins at RT. After washing with 9 ml of RPMI complete media, cells re-suspended in 3 ml of 1×PBS in a 15 ml tube. 3 ml of histopaque was added very carefully to the bottom of the tube without disturbing overlaying splenocyte suspension. Spin the tube at 800×g for 20 mins at RT. Opaque layer of lymphocytes is collected carefully without disturbing/mixing any of the layers. Cells washed twice with cold 1×PBS followed by total cell counting using trypan blue exclusion method and used further for cell based assays.
Tumour cells (MDMBA231) are cultured and maintained in high glucose complete DMEM media. 1×10^5 tumour cells were plated in 96 well plates along with required conc. of PD1 derived peptide and allowed to adhere at 37° C. for 4 hrs. 1×10^6 cells/ml of harvested splenocytes are treated with 5 μM of CFSE in pre warmed 1×PBS/0.1% BSA solution for 10 mins at 37° C. Excess CFSE was quenched using 5 volumes of ice-cold culture media to the cells and incubated on ice for 5 mins. CFSE labeled splenocytes were further given three washes with ice cold complete DMEM media. CFSE labeled 1×10^5 splenocytes added to above wells containing tumours cells and test compounds. Splenocytes were stimulated with anti-CD3 and anti-CD28 antibody (1 μg/ml each) and the co-culture was further incubated for 72 hrs at 37° C. with 5% CO2. Cells were harvested and washed thrice with ice cold FACS buffer and % proliferation was analyzed using a FACS caliber with 488 nm excitation and 521 nm emission filters. Each experimental condition was carried out in triplicates and each experiment at least carried out three times. Splenocyte proliferation was analyzed using cell quest FACS program and fold induction was calculated by normalizing individual values to percent background proliferation. Fold induction=Percent splenocyte proliferation/percent background proliferation Stimulated splenocytes: Splenocytes+anti-CD3/CD28 stimulation Background proliferation: Splenocytes+anti-CD3/CD28+Tumour Percent Proliferation rescue={(compound percent proliferation−Background percent proliferation)/(Stimulated percent proliferation−Background percent proliferation)}*100.

[2] = rat, kidney brush border membrane (KBBM) preparation, pH 7.4

Q: Which results are given for CC[C@H](C)[C@H](NC(=O)[C@H](CCC(N)=O)NC(=O)[C@H](C)NC(=O)[C@H](CCCCN)NC(=O)[C@@H]1CCCN1C(=O)[C@H](C)NC(=O)[C@H](CC(C)C)NC(=O)[C@H](CCC(N)=O)NC(=O)[C@@H](NC(=O)[C@@H](NC(=O)[C@H](CCCNC(=N)N)NC(=O)[C@H](Cc1ccccc1)NC(=O)C(CCCCNC(=O)[C@H](Cc1ccccc1)NC(=O)[C@H](CO)NC(=O)[C@H](CCC(=O)O)NC(=O)[C@H](CO)NC(=O)[C@@H](NC(=O)[C@H](CC(N)=O)NC(=O)[C@@H](N)CO)[C@@H](C)O)NC(=O)[C@H](Cc1ccccc1)NC(=O)[C@H](CO)NC(=O)[C@H](CCC(=O)O)NC(=O)[C@H](CO)NC(=O)[C@@H](NC(=O)[C@H](CC(N)=O)NC(=O)[C@@H](N)CO)[C@@H](C)O)C(C)C)[C@@H](C)O)C(=O)N[C@@H](CCCCN)C(=O)N[C@@H](CCC(=O)O)C(N)=O (stereo partly shown) [Compound 8]?
A: Body weight (B16F10 cells): no body weight reduction; Clinical signs (B16F10 cells): no clinical signs; MIC (Organisms (not named); broth microdilution, 16-20 hours at 35±2° C.): > 32 µg/mL; Body weight (4T1 cells): no body weight reduction

Q: Which “RKBBM % compound remaining” value (in vitro; 0 min) does the source give for CC[C@H](C)[C@H](NC(=O)[C@H](CCCCN)NC(=O)[C@H](C)NC(=O)[C@H](CCCCN)NC(=O)[C@@H]1CCCN1C(=O)[C@H](Cc1c[nH]cn1)NC(=O)[C@H](CC(C)C)NC(=O)[C@H](CCC(N)=O)NC(=O)[C@@H](NC(=O)[C@@H](NC(=O)[C@H](CCC(N)=O)NC(=O)[C@H](Cc1ccccc1)NC(=O)[C@H](CCCCNC(=O)[C@H](CC(C)C)NC(=O)[C@H](CC(=O)O)NC(=O)[C@H](CCC(=O)O)NC(=O)[C@H](CO)NC(=O)[C@H](Cc1c[nH]c2ccccc12)NC(=O)[C@H](CC(N)=O)NC(=O)[C@@H](N)CO)NC(=O)[C@H](CC(C)C)NC(=O)[C@H](CC(=O)O)NC(=O)[C@H](CCC(=O)O)NC(=O)[C@H](CO)NC(=O)[C@H](Cc1c[nH]c2ccccc12)NC(=O)[C@H](CC(N)=O)NC(=O)[C@@H](N)CO)[C@@H](C)CC)[C@@H](C)CC)C(=O)N[C@@H](CCC(=O)O)C(=O)N[C@@H](CCC(=O)O)C(N)=O [Compound 69] (I: H-SNWSEDLKFQIIQLHPKAKIEE-NH2 / II: H-SNWSEDL; amide I:8-II:C) here?
A: 100%

Q: What about the remaining at 10 min, 1 μM (in vitro; [2]) of the same compound?
A: 100%

Q: And the remaining at 0.5 h, 1 μM (in vitro; [2])?
A: 98%

Q: And the remaining at 1 h, 1 μM (in vitro; [2])?
A: 81%

Q: And the “Percent rescue for various compounds in mouse splenocyte proliferation CFSE based assay” value (“Percent rescue for various compounds” below) [1]?
A: 48%

Q: With O=C(O)c1cn(C2CC2)c2cc(N3CCNCC3)c(F)cc2c1=O [ciprofloxacin] as the compound, how does the MIC (Organisms (not named)) read?
A: 0.007 µg/mL (≈ 0.0211 µM)

Q: Which MIC (Organisms (not named)) does the source give for C[C@H]1COc2c(N3CCN(C)CC3)c(F)cc3c(=O)c(C(=O)O)cn1c23 [levofloxacin] here?
A: 0.015 µg/mL (≈ 0.0415 µM)

Q: With “Biotin-Ahx-EKIQAKPAYWNLVK(KDTQNS)DTQNS-NH2 [Compound 61]” as the compound, how does the “Percent rescue for various compounds” value [1] read?
A: 67%

Q: For “Biotin-Ahx-sntsesfk(sntsesf)frvtqlapkaqike-NH2 [Compound 60]”, which “Percent rescue for various compounds” value [1] is on record?
A: 14.9%

Q: With CGAISLAPKAQIKE-NH2 [Compound 5] as the compound, how does the “Percent rescue for various compounds” value [1] read?
A: 68%

Q: With EDRSQPGQDCR-NH2 [Compound 4] as the compound, how does the “Percent rescue for various compounds” value [1] read?
A: 74.7%

Q: With FRVTQLAPKAQIKE-NH2 [Compound 43] as the compound, how does the “Percent rescue for various compounds” value [1] read?
A: 66%

Q: Which “Percent rescue for various compounds” value [1] does the source give for SNTSESF-NH2 [Compound 1] here?
A: 96.5%

Q: Which “Percent rescue for various compounds” value [1] does the source give for SNTSESFFRVTQLAPKAQIKE-NH2 [Compound 26] here?
A: 86.6%

Q: Which “Percent rescue in mouse splenocyte proliferation CFSE based assay (cell printed with nM, control peptide)” value ([1]; control peptide) does the source give for “sntsesfk(sntsesf)frvtqlapkaqike-NH2 [Compound 13]” here?
A: 0-12 nM-
